From patent publication US20050208512A1, “Determining the chemosensitivity of cells to cytotoxic agents” (The Ohio State University Research Foundation, priority 2003, published 2005)
Entries after “also recorded” stand apart in the source; their conditions may differ. Where two headings read alike, the source gives them in different places.

Key:
Assay type in all cases: cell-based, human
NCI/ADR-RES cells = test: SRB cytotoxicity assay in NCI/ADR-RES cells transfected with ABCB1 or mock siRNA; conditions: for Fold reversal: mock vs ABCB1 siRNA; for effect of ABCB1 siRNA on chemosensitivity to the drug: result in words
Procedure: (§1) Human cancer cells were transfected with ABCB1, ABCB5 or mock siRNA. Drug activity was measured with the SRB assay. IC50 is the concentration that produced 50% inhibition of cell growth compared to controls. Results represent the mean of two or mean±SD of at least three independent experiments.
(§2) We next compared growth-inhibitory IC50 values of siRNA-treated to that of mock-treated cells using a sulforhodamine B (SRB) cell proliferation assay.
(§3) Cell lines, obtained from Division of Cancer Treatment and Diagnosis at NCI, were cultured in RPMI 1640 containing 10% heat-inactivated fetal calf serum in a 5% CO2 incubator at 37° C. Transfection was performed with TransMessenger Transfection Reagent (QIAGEN). To down-regulate ABCB1 or ABCB5, cancer cells were transfected with 0.3 or 0.6 μM siRNA. For RNA extraction, cells were harvested 48 hours after transfection.
(§4) Cytotoxicity assay. 5FU, Camptothecin, and Mitoxathone were obtained from Sigma. The other compounds were from Developmental Therapeutics Program at NCI. […] Anticancer drugs were added in a dilution series in 6 replicated wells. After 4 days, incubation was terminated by replacing the medium with 100 μl 10% trichloroacetic acid (Sigma, St. Louis, Mo.) in 1×PBS, followed by incubation at 4° C. for at least 1 hour. Subsequently, the plates were washed with water and air-dried. The plates were stained with 100 μl 0.4% SRB (Sigma) in 1% acetic acid for 30 min at room temperature. Unbound dye was washed off with 1% acetic acid. After air-drying and re-solubilization of the protein-bound dye in 10 mM Tris-HCl (pH 8.0), absorbance was read by a micro-plate reader at 570 nm. To determine the IC50 values, the absorbance of control cells without drug was set at 1. Dose-response curves were plotted using SigmaPlot software (RockWare, Golden, Colo.). Each experiment was performed independently at least three times.

SK-MEL-28 cells = test: SRB cytotoxicity assay in SK-MEL-28 cells transfected with ABCB5 or mock siRNA; conditions: for IC50: 4 days drug, SRB; for Fold reversal: mock vs ABCB5 siRNA; for effect of ABCB5 siRNA on chemosensitivity to the drug: result in words
Procedure: Human cancer cells were transfected with ABCB1, ABCB5 or mock siRNA. Drug activity was measured with the SRB assay. […] Results represent the mean of two or mean±SD of at least three independent experiments.
To identify suitable ABCB5 domains for siRNA-mediated gene silencing, siRNA duplexes against three target domains were synthesized and transfected into SK-MEL-28 cells.
Transfection was performed with TransMessenger Transfection Reagent (QIAGEN). To down-regulate ABCB1 or ABCB5, cancer cells were transfected with 0.3 or 0.6 μM siRNA. For RNA extraction, cells were harvested 48 hours after transfection.
as §4

HCT-15 cells = test: SRB cytotoxicity assay in HCT-15 cells transfected with ABCB1 or mock siRNA; conditions: for Fold reversal: mock vs ABCB1 siRNA
Procedure: as §1, §2, §3, §4

[1] = Homo sapiens, 96 h, NCI/ADR-RES cells, ABCB1 siRNA, 4 days drug, SRB, read-out: IC50 (μM) siRNA
[2] = Homo sapiens, 96 h, NCI/ADR-RES cells, mock siRNA, 4 days drug, SRB, read-out: IC50 (μM) Mock
[3] = Homo sapiens, 96 h, ABCB5 siRNA, read-out: IC50 (μM) siRNA
[4] = Homo sapiens, 96 h, mock siRNA, read-out: IC50 (μM) Mock
[5] = ABCB5 siRNA, read-out: IC50 (μM) siRNA
[6] = mock siRNA, read-out: IC50 (μM) Mock
[7] = Homo sapiens, 96 h, HCT-15 cells, ABCB1 siRNA, 4 days drug, SRB, read-out: IC50 (μM) siRNA
[8] = Homo sapiens, 96 h, HCT-15 cells, mock siRNA, 4 days drug, SRB, read-out: IC50 (μM) Mock

Row | Compound | IC50 (NCI/ADR-RES cells; [1]) | IC50 (NCI/ADR-RES cells; [2]) | Fold reversal (NCI/ADR-RES cells; NCI/ADR-RES cells) | Fold reversal (SK-MEL-28 cells) | effect of ABCB5 siRNA on chemosensitivity to the drug (SK-MEL-28 cells) | Fold reversal (HCT-15 cells; HCT-15 cells) | other results
1 | O=c1[nH]cc(F)c(=O)[nH]1 [5FU, fluorouracil] | 1000 µM | 900 µM | 0.90 | 1.96 ± 0.16 | Enhanced chemosensitivity |  | effect of ABCB1 siRNA on chemosensitivity to the drug (NCI/ADR-RES cells; NCI/ADR-RES cells): unaffected; also recorded: no effect on potency; IC50 (SK-MEL-28 cells; [3]): 6.43 ± 2.67 µM; IC50 (SK-MEL-28 cells; [4]): 12.4 ± 4.6 µM
2 | COc1cc(NS(C)(=O)=O)ccc1Nc1c2ccccc2nc2ccccc12 [AMSA] |  |  |  |  | no change in potency |  | 
3 | CCS(=O)(=O)O.CN(C)C(=O)c1cccc(COc2ccc(N3C(N)=NC(N)=NC3(C)C)cc2Cl)c1 [Baker's antifol, Baker's-soluble-antifol] |  |  | 3.23 ± 0.45 |  |  | 1.47 ± 0.29 | IC50 (NCI/ADR-RES cells; NCI/ADR-RES cells, ABCB1 siRNA, 4 days drug, SRB, read-out: IC50 (μM) siRNA): 131 ± 36.7 µM; IC50 (NCI/ADR-RES cells; NCI/ADR-RES cells, mock siRNA, 4 days drug, SRB, read-out: IC50 (μM) Mock): 420 ± 120 µM; IC50 (HCT-15 cells; HCT-15 cells, ABCB1 siRNA, 4 days drug, SRB, read-out: IC50 (μM) siRNA): 33.7 ± 6.23 µM; IC50 (HCT-15 cells; HCT-15 cells, mock siRNA, 4 days drug, SRB, read-out: IC50 (μM) Mock): 48.2 ± 5.18 µM
4 | C(=N\NC1=NCCN1)/c1c2ccccc2c(/C=N/NC2=NCCN2)c2ccccc12 [Bisantrene] |  |  | >4.22 |  |  | 1.39 | IC50 (NCI/ADR-RES cells; Homo sapiens, NCI/ADR-RES, 96 h, read-out: IC50 (μM) Mock): > 100 µM; IC50 (NCI/ADR-RES cells; Homo sapiens, NCI/ADR-RES, 96 h, read-out: IC50 (μM) siRNA): 23.7 µM; IC50 (HCT-15 cells; Homo sapiens, HCT-15, 96 h, read-out: IC50 (μM) Mock): 7.63 µM; IC50 (HCT-15 cells; Homo sapiens, HCT-15, 96 h, read-out: IC50 (μM) siRNA): 5.47 µM
5 | CC[C@@]1(O)C(=O)OCc2c1cc1n(c2=O)Cc2cc3cc(O)ccc3nc2-1 [CPT,10-OH] |  |  |  | 3.62 ± 1.35 | Enhanced chemosensitivity |  | IC50 (SK-MEL-28 cells; [5]): 0.14 ± 0.02 µM; IC50 (SK-MEL-28 cells; [6]): 0.48 ± 0.12 µM
6 | CC[C@@]1(O)C(=O)OCc2c1cc1n(c2=O)Cc2cc3ccccc3nc2-1 [Camptothecin] |  |  |  | 2.17 |  |  | IC50 (SK-MEL-28 cells; [3]): 0.06 µM; IC50 (SK-MEL-28 cells; [4]): 0.13 µM
7 | COC1=C2C[C@@H](C)C[C@H](OC)[C@H](O)[C@@H](C)/C=C(\C)[C@H](OC(N)=O)[C@@H](OC)/C=C\C=C(/C)C(=O)NC(=CC1=O)C2=O [Geldanamycin, geldanamycin] | 3.6 ± 0.6 µM | 6.84 ± 1.08 µM | 1.95 ± 0.45 |  |  | 1.26 ± 0.14 | IC50 (HCT-15 cells; [7]): 8.2 ± 3.88 µM; IC50 (HCT-15 cells; [8]): 9.91 ± 3.96 µM
8 | O=C1c2c(O)ccc(O)c2C(=O)c2c(NCCNCCO)ccc(NCCNCCO)c21 [Mitoxathone] |  |  |  | 1.37 | no change in potency; also recorded: no effect on potency |  | IC50 (SK-MEL-28 cells; [5]): 0.79 µM; IC50 (SK-MEL-28 cells; [6]): 1.08 µM
9 | CC(=O)O[C@H]1C(=O)[C@@]2(C)[C@H]([C@H](OC(=O)c3ccccc3)[C@]3(O)C[C@H](OC(=O)[C@H](O)[C@@H](NC(=O)c4ccccc4)c4ccccc4)C(C)=C1C3(C)C)[C@]1(OC(C)=O)CO[C@@H]1C[C@@H]2O [Palitaxel, Paclitaxel] | 1.06 µM | 8.01 µM | 7.57 |  |  | 1.72 | effect of ABCB1 siRNA on chemosensitivity to the drug (NCI/ADR-RES cells; NCI/ADR-RES cells): Enhanced chemosensitivity; IC50 (HCT-15 cells; [7]): 0.18 µM; IC50 (HCT-15 cells; [8]): 0.31 µM
